EC50 and Lymphocyte counts data for eleven compounds are collected here from patent publication US8598208B2, “Pyridine derivatives as S1P1/EDG1 receptor modulators” (Actelion Pharmaceuticals Ltd., priority 2007, dated 2013).

recombinant human S1P1 receptor, sequence (P21453 whole entry): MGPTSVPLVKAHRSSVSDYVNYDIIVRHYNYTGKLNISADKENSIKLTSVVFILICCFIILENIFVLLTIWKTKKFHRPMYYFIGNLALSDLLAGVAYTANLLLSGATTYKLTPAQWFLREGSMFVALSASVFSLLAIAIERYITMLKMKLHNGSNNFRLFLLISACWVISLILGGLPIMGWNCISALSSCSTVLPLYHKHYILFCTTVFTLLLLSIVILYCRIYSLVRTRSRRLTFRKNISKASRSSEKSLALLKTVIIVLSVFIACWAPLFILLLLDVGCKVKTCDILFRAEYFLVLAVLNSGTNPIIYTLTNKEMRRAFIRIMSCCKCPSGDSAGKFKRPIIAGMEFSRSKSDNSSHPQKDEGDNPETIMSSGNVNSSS

One assay has as its target recombinant human S1P1 receptor (Homo sapiens, UniProt P21453). The experiment in a line: GTPγS assay to determine EC50 values. Particulars: membrane preparations of CHO cells expressing recombinant human S1P1 receptor; pH 7.4; read-out: EC50 (agonistic activity, 35S-GTPγS binding). In kind it is biochemical. Here is the method: GTPγS binding assays are performed in 96 well microtiter plates (Nunc, 442587) in a final volume of 200 μl, using membrane preparations of CHO cells expressing recombinant human S1P1 receptor. Assay conditions are 20 mM Hepes (Fluka, 54461), 100 mM NaCl (Fluka, 71378), 5 mM MgCl2 (Fluka, 63064), 0.1% BSA (Calbiochem, 126609), 1 μM GDP (Sigma, G-7127), 2.5% DMSO (Fluka, 41644), […] ^35S-GTPγS (Amersham Biosciences, SJ1320). The pH is 7.4. Test compounds are dissolved and diluted in 100% DMSO and pre-incubated at room temperature for 30 min in 150 μl of the above assay buffer, in the absence of ^35S-GTPγS. After addition of 50 μl of ^35S-GTPγS, the assay is incubated for 1 h at rt. The assay is terminated by transfer of the reaction mixture to a Multiscreen plate (Millipore, MAHFC1H60) using a cell harvester from Packard Biosciences, and the plates are washed with ice-cold 10 mM Na2HPO4/NaH2PO4 (70%/30%), dried, sealed at the bottom and, after addition of 25 μl MicroScint20 (Packard Biosciences, order#6013621), sealed on the top. Membrane-bound ^35S-GTPγS is measured with a TopCount from Packard Biosciences.
EC50 is the concentration of agonist inducing 50% of the maximal specific ^35S-GTPγS binding. Specific binding is determined by subtracting non-specific binding from maximal binding. Maximal binding is the amount of cpm bound to the Multiscreen plate in the presence of 10 μM of S1P. Non-specific binding is the amount of binding in the absence of an agonist in the assay.
`CCc1cc(-c2noc(-c3cc(C)nc(CC)c3)n2)cc(C)n1` [Example 2]: the EC50 was determined as 5.2 nM. Consider `CCCc1cc(-c2nc(-c3cc(C)nc(C)c3)no2)cc(C)n1` [Example 6], for which the EC50 was found to be 2.4 nM. As for `Cc1cc(-c2noc(-c3cc(C)nc(CC(C)C)c3)n2)cc(C)n1` [Example 8], the EC50 stood at 0.4 nM. Turning to `CCNc1cc(-c2nc(-c3cc(C)nc(CC)c3)no2)cc(C)n1` [Example 29], the EC50 is 0.9 nM. For `Cc1cc(-c2nc(-c3cnc(NC(C)C)c(C)c3)no2)cc(CC(C)C)n1` [Example 39], the EC50 came out at 6.1 nM.

In the case of `CCc1cc(-c2noc(-c3cc(C)nc(C(CC)CC)c3)n2)cc(C)n1` [Example 45], the EC50 was found to be 0.4 nM.

Regarding `CCc1cc(-c2nc(-c3cc(C)nc(C)c3)no2)cc(CC(C)C)n1` [Example 61], the EC50 was 1 nM.

Take `CCc1cc(-c2noc(-c3cc(CC)nc(CC(C)C)c3)n2)cc(C)n1` [Example 62]: the EC50 turned out to be 1.4 nM. For the compound `CCC(CC)c1cc(-c2nc(-c3cc(C)nc(C)c3)no2)cc(C)n1` [Example 65], the EC50 came to 0.5 nM. Same read-out and setting: the same measure for `Cc1cc(-c2noc(-c3cc(C)nc(C4CCCC4)c3)n2)cc(C)n1` [Example 66]: 0.3 nM. On to `CCc1cc(-c2noc(-c3cc(OC)nc(C4CCCC4)c3)n2)cc(C)n1` [Example 117], for which the EC50 was 2.1 nM.

Another assay has as its system circulating lymphocytes. The assay can be described thus: Assessment of in vivo efficacy: circulating lymphocytes after oral administration. More on the design: species or system normotensive male Wistar rats. Conditions: 6 h after oral administration of 3 mg/kg, male Wistar rats, compared to vehicle group; mean ± SEM. As for the experimental part: The efficacy of the compounds of Formula (I) is assessed by measuring the circulating lymphocytes after oral administration of 3 to 30 mg/kg of a compound of Formula (I) to normotensive male Wistar rats. The animals are housed in climate-controlled conditions with a 12 h-light/dark cycle, and have free access to normal rat chow and drinking water. Blood is collected before and 3, 6 and 24 h after drug administration. Full blood is subjected to hematology using Advia Hematology system (Bayer Diagnostics, Zürich, Switzerland).
All data are presented as mean±SEM. Statistical analyses are performed by analysis of variance (ANOVA) using Statistica (StatSoft) and the Student-Newman-Keuls procedure for multiple comparisons. The null hypothesis is rejected when p≦0.05.
As for `CCCc1cc(-c2nc(-c3cc(C)nc(C)c3)no2)cc(C)n1` [Example 6], the Lymphocyte counts was −68% ± 3%^.
